Measured values taken from PubChem BioAssay (NCI).
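Cells were grown in 96-well plates and exposed to each compound for 48 hours at five concentrations; endpoints were interpolated linearly between bracketing concentrations, or set to the highest concentration if not reached. GI50 is the concentration that inhibits growth by half. Definition used: TGI = concentration required for complete inhibition of growth.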

Key:
Assay in all cases: NCI-60 cell line screen, 48 h
[1] = system: SK-MEL-28 melanoma
[2] = system: SF-295 CNS
[3] = system: HCC-2998 colon
[4] = system: UACC-62 melanoma
[5] = system: PC-3 prostate
[6] = system: RXF 393 renal
[7] = system: NCI/ADR-RES ovarian
[8] = system: RPMI-8226 leukemia
[9] = system: SK-MEL-5 melanoma
[10] = system: BT-549 breast
[11] = system: OVCAR-3 ovarian
[12] = system: SN12C renal
[13] = system: ACHN renal
[14] = system: SF-268 CNS
[15] = system: COLO 205 colon
[16] = system: NCI-H23 lung
[17] = system: HT29 colon
[18] = system: CAKI-1 renal
[19] = system: M14 melanoma
[20] = system: HL-60(TB) leukemia
[21] = system: NCI-H460 lung
[22] = system: UACC-257 melanoma
[23] = system: HOP-92 NSCLC
[24] = system: OVCAR-5 ovarian
[25] = system: OVCAR-4 ovarian
[26] = system: 786-0 renal
[27] = system: EKVX NSCLC
[28] = system: SNB-75 CNS
[29] = system: U251 CNS

NC(=O)/C(=C/n1cnc(-c2cc(C(F)(F)F)cc(C(F)(F)F)c2)n1)c1cncnc1
GI50 [1]: 503 nM
TGI [1]: 11700 nM
GI50 [2]: 667 nM
TGI [2]: 17100 nM
GI50 [3]: 740 nM
TGI [3]: 5340 nM
GI50 [4]: 630 nM
TGI [4]: 5370 nM
GI50 [5]: 185 nM
TGI [5]: 14800 nM
GI50 [6]: 70.6 nM
TGI [6]: 573 nM
GI50 [7]: 517 nM
TGI [7]: 23900 nM
GI50 [8]: 102 nM
TGI [8]: 9530 nM
GI50 [9]: 1130 nM
TGI [9]: 10200 nM
GI50 [10]: 120 nM
TGI [10]: 2980 nM
GI50 [11]: 154 nM
TGI [11]: 3320 nM
GI50 [12]: 814 nM
TGI [12]: 12700 nM
GI50 [13]: 386 nM
TGI [13]: 11400 nM
GI50 [14]: 516 nM
TGI [14]: 11900 nM
GI50 [15]: 124 nM
TGI [15]: 11500 nM
GI50 [16]: 307 nM
TGI [16]: 9180 nM
GI50 [17]: 422 nM
TGI [17]: 16300 nM
GI50 [18]: 275 nM
TGI [18]: 14100 nM
GI50 [19]: 715 nM
TGI [19]: 7860 nM
GI50 [20]: 56.2 nM
TGI [20]: 2960 nM
GI50 [21]: 187 nM
TGI [21]: 5610 nM
GI50 [22]: 860 nM
TGI [22]: 8990 nM
GI50 [23]: 159 nM
TGI [23]: 8230 nM
GI50 [24]: 447 nM
TGI [24]: 16200 nM
GI50 [25]: 83.3 nM
TGI [25]: 16100 nM
GI50 [26]: 412 nM
TGI [26]: 11400 nM
GI50 [27]: 566 nM
TGI [27]: 20800 nM
GI50 [28]: 454 nM
TGI [28]: 5480 nM
GI50 [29]: 301 nM
TGI [29]: 12300 nM
